Assay results: PMC10068823 (European Journal of Medicinal Chemistry, 2023)

Legend:
SARS-CoV-2 3CL^pro [1] = target: T1, SARS-CoV-2 3CL^pro (Severe acute respiratory syndrome coronavirus 2, UniProt P0DTD1); format: biochemical
HCoV 229E [2] = settings: BEAS2B cell
HCoV 229E [3] = test: organism not typed; settings: BEAS-2B, read-out: EC50 HCoV229E
SARS-CoV-2 3CL^pro [4] = target: T1, SARS-CoV-2 3CL^pro; format: biochemical; remark: listed apart in the source

Compound | SARS-CoV-2 3CL^pro enzyme inhibition at fixed concentration (SARS-CoV-2 3CL^pro [1]) | improvement in antiviral potency when co-dosed with CP-100356 (SARS-CoV-2) | SI (CC50/EC50) MERS (MERS-CoV) | SI (CC50/EC50) HCoV229E (HCoV 229E [2]) | EC50 (HCoV 229E [3]) | also measured
CC(C)[C@H](NC(=O)OC(C)(C)C)C(=O)N1CCC[C@H]1C(=O)N[C@@H](C[C@@H]1CCNC1=O)C(=O)O [Compound 26, (S)-2-((S)-1-((tert-butoxycarbonyl)-L-valyl)pyrrolidine-2-carboxamido)-3-((S)-2-oxopyrrolidin-3-yl)propanoic acid] | inactive |  |  |  |  | 
C[C@H](OC(C)(C)C)[C@H](NC(=O)OC(C)(C)C)C(=O)N1CCC[C@H]1C(=O)N[C@H](C=O)C[C@@H]1CCNC1=O [Compound 14, tert-Butyl ((2S,3S)-3-(tert-butoxy)-1-oxo-1-((S)-2-(((S)-1-oxo-3-((S)-2-oxopyrrolidin-3-yl)propan-2-yl)carbamoyl)pyrrolidin-1-yl)butan-2-yl)carbamate] |  | more than 3 fold |  |  |  | 
CC(C)[C@H](NC(=O)OC(C)(C)C)C(=O)N1CCCC[C@H]1C(=O)N[C@H](C=O)C[C@@H]1CCNC1=O [Compound 13, tert-Butyl ((S)-3-methyl-1-oxo-1-((S)-2-(((S)-1-oxo-3-((S)-2-oxopyrrolidin-3-yl)propan-2-yl)carbamoyl)piperidin-1-yl)butan-2-yl)carbamate] |  | more than 3 fold |  |  |  | 
COC(=O)[C@H](C[C@@H]1CCNC1=O)NC(=O)[C@@H]1CCCN1C(=O)[C@@H](NC(=O)OC(C)(C)C)C(C)C [Compound 25g, Methyl (S)-2-((S)-1-((tert-butoxycarbonyl)-L-valyl)pyrrolidine-2-carboxamido)-3-((S)-2-oxopyrrolidin-3-yl)propanoate] | inactive |  |  |  |  | 
CC(C)[C@H](NC(=O)OC(C)(C)C)C(=O)N1CCC[C@H]1C(=O)N[C@H](CO)C[C@@H]1CCNC1=O [Compound 27g, tert-Butyl ((S)-1-((S)-2-(((S)-1-hydroxy-3-((S)-2-oxopyrrolidin-3-yl)propan-2-yl)carbamoyl)pyrrolidin-1-yl)-3-methyl-1-oxobutan-2-yl)carbamate] | inactive |  |  |  |  | 
CC(C)C[C@H](NC(=O)[C@@H](NC(=O)OC(C)(C)C)C(C)C)C(=O)N[C@H](C=O)C[C@@H]1CCNC1=O [Compound 5, tert-Butyl ((S)-3-methyl-1-(((S)-4-methyl-1-oxo-1-(((S)-1-oxo-3-((S)-2-oxopyrrolidin-3-yl)propan-2-yl)amino)pentan-2-yl)amino)-1-oxobutan-2-yl)carbamate] |  | more than 3 fold | 1.58 ± 0.91 (>63) | > 30.1 |  | 
CC(C)[C@H](NC(=O)OC(C)(C)C)C(=O)N1C[C@H](OC(C)(C)C)C[C@H]1C(=O)N[C@H](C=O)C[C@@H]1CCNC1=O [Compound 11, tert-Butyl ((S)-1-((2S,4R)-4-(tert-butoxy)-2-(((S)-1-oxo-3-((S)-2-oxopyrrolidin-3-yl)propan-2-yl)carbamoyl)pyrrolidin-1-yl)-3-methyl-1-oxobutan-2-yl)carbamate] |  | more than 3 fold | 33.56 ± 6.8 (>3) | < 10 | > 48.2 µM | 
CC(C)[C@H](NC(=O)OC(C)(C)C)C(=O)N1CCC[C@H]1C(=O)N[C@H](C=O)C[C@@H]1CCNC1=O [Compound 6, tert-Butyl ((S)-3-methyl-1-oxo-1-((S)-2-(((S)-1-oxo-3-((S)-2-oxopyrrolidin-3-yl)propan-2-yl)carbamoyl)pyrrolidin-1-yl)butan-2-yl)carbamate] |  |  | 4.56 ± 1.39 (>22) | < 10 | > 17.9 µM | 
CO[C@H]1C[C@@H](C(=O)N[C@H](C=O)C[C@@H]2CCNC2=O)N(C(=O)[C@@H](NC(=O)OC(C)(C)C)C(C)C)C1 [Compound 8, tert-Butyl ((S)-1-((2S,4S)-4-methoxy-2-(((S)-1-oxo-3-((S)-2-oxopyrrolidin-3-yl)propan-2-yl)carbamoyl)pyrrolidin-1-yl)-3-methyl-1-oxobutan-2-yl)carbamate] |  |  | 0.58 ± 0.34 (>172) | < 10 | > 3.6 µM | increase in potency on MERS respect to SARS-CoV-2 in the CPE cellular assay (MERS-CoV): 15 fold
CC(C)[C@H](NC(=O)OC(C)(C)C)C(=O)N1C[C@@H]2CCC[C@@H]2[C@H]1C(=O)N[C@H](C=O)C[C@@H]1CCNC1=O [Compound 12, tert-Butyl ((S)-3-methyl-1-oxo-1-((1S,3aR,6aS)-1-(((S)-1-oxo-3-((S)-2-oxopyrrolidin-3-yl)propan-2-yl)carbamoyl)hexahydrocyclopenta[c]pyrrol-2(1H)-yl)butan-2-yl)carbamate] |  |  |  |  |  | lower activity against MERS compared to SARS-CoV-2 (MERS-CoV): 20 fold; mechanism of action from enzymatic progression curve (SARS-CoV-2 3CL^pro [4]): slow covalent binding inhibitor; cytotoxicity in Calu-3 cells (Calu-3 cells): without sign of cytotoxicity
